Test system: ATF4 luciferase reporter in HEK293T cells
Test: ATF4-Luc assay (ATF4 luciferase reporter, tunicamycin-treated HEK293T cells)
Format: cell-based, human
Conditions: Homo sapiens, HEK-293T; HEK293T cells carrying the ATF4 luciferase reporter, 1 μg/mL tunicamycin, 7 hours

Structure (SMILES)	EC50
Cc1cc(F)ncc1OCC(=O)NC12CC(NC(=O)COc3ccc(Cl)c(F)c3)(C1)C2 [Compound 247, 2-(4-chloro-3-fluorophenoxy)-N-(3-{2-[(6-fluoro-4-methylpyridin-3-yl)oxy]acetamido}bicyclo[1.1.1]pentan-1-yl)acetamide]	50 to 250 nM
CC(C)c1ccc(OCC(=O)NC23CC(NC(=O)COc4ccc(Cl)c(F)c4)(C2)C3)cn1 [Compound 248, 2-(4-chloro-3-fluorophenoxy)-N-[3-(2-{[6-(propan-2-yl)pyridin-3-yl]oxy}acetamido)bicyclo[1.1.1]pentan-1-yl]acetamide]	50 to 250 nM
Cc1nc(F)ccc1OCC(=O)NC12CC(NC(=O)COc3ccc(Cl)c(F)c3)(C1)C2 [Compound 249, 2-(4-chloro-3-fluorophenoxy)-N-(3-{2-[(6-fluoro-2-methylpyridin-3-yl)oxy]acetamido}bicyclo[1.1.1]pentan-1-yl)acetamide]	250 to 500 nM
Nc1ncc(OCC(=O)NC23CC(NC(=O)COc4ccc(Cl)c(F)c4)(C2)C3)cc1Cl [Compound 250, 2-[(6-amino-5-chloropyridin-3-yl)oxy]-N-{3-[2-(4-chloro-3-fluorophenoxy)acetamido]bicyclo[1.1.1]pentan-1-yl}acetamide]	50 to 250 nM
O=C(COc1ccc(C2CC2)nc1)NC12CC(NC(=O)COc3ccc(Cl)c(F)c3)(C1)C2 [Compound 251, 2-(4-chloro-3-fluorophenoxy)-N-(3-{2-[(6-cyclopropylpyridin-3-yl)oxy]acetamido}bicyclo[1.1.1]pentan-1-yl)acetamide]	10 to 50 nM
COc1ccc(OCC(=O)NC23CC(NC(=O)COc4ccc(Cl)c(F)c4)(C2)C3)c(C)n1 [Compound 252, 2-(4-chloro-3-fluorophenoxy)-N-(3-{2-[(6-methoxy-2-methylpyridin-3-yl)oxy]acetamido}bicyclo[1.1.1]pentan-1-yl)acetamide]	50 to 250 nM
COc1ncc(OCC(=O)NC23CC(NC(=O)COc4ccc(Cl)c(F)c4)(C2)C3)cc1C [Compound 253, 2-(4-chloro-3-fluorophenoxy)-N-(3-{2-[(6-methoxy-5-methylpyridin-3-yl)oxy]acetamido}bicyclo[1.1.1]pentan-1-yl)acetamide]	10 to 50 nM
O=C(COc1ccc(Cl)c(F)c1)NC12CC(NC(=O)COc3cnc4cc[nH]c4c3)(C1)C2 [Compound 254, 2-(4-chloro-3-fluorophenoxy)-N-(3-{2-[(1H-pyrrolo[3,2-b]pyridin-6-yl)oxy]acetamido}bicyclo[1.1.1]pentan-1-yl)acetamide]	250 to 500 nM
O=C(COc1ccc(Cl)c(F)c1)NC12CC(NC(=O)COc3cnc4ccoc4c3)(C1)C2 [Compound 255, 2-(4-chloro-3-fluorophenoxy)-N-(3-{2-[(furo[3,2-b]pyridin-6-yl)oxy]acetamido}bicyclo[1.1.1]pentan-1-yl)acetamide]	50 to 250 nM
O=C(COc1ccc(Cl)c(F)c1)NC12CC(NC(=O)COc3ccc(C(F)(F)F)nn3)(C1)C2 [Compound 256, 2-(4-chloro-3-fluorophenoxy)-N-[3-(2-{[6-(trifluoromethyl)pyridazin-3-yl]oxy}acetamido)bicyclo[1.1.1]pentan-1-yl]acetamide]	50 to 250 nM
CS(=O)(=O)c1ccc(OCC(=O)NC23CC(NC(=O)COc4ccc(Cl)c(F)c4)(C2)C3)cn1 [Compound 257, 2-(4-chloro-3-fluorophenoxy)-N-[3-(2-{[6-(methanesulfonyl)pyridin-3-yl]oxy}acetamido)bicyclo[1.1.1]pentan-1-yl]acetamide]	250 to 500 nM
O=C(COc1ccc(Cl)c(F)c1)NC12CC(NC(=O)COc3ccc4c(c3)OC(F)(F)O4)(C1)C2 [Compound 258, 2-(4-chloro-3-fluorophenoxy)-N-(3-{2-[(2,2-difluoro-2H-1,3-benzodioxol-5-yl)oxy]acetamido}bicyclo[1.1.1]pentan-1-yl)acetamide]	< 10 nM
NCc1ccc(OCC(=O)NC23CC(NC(=O)COc4ccc(Cl)c(F)c4)(C2)C3)cn1 [Compound 259, 2-{[6-(aminomethyl)pyridin-3-yl]oxy}-N-{3-[2-(4-chloro-3-fluorophenoxy)acetamido]bicyclo[1.1.1]pentan-1-yl}acetamide]	250 to 500 nM
O=C(COc1ccc(Cl)c(F)c1)NC12CC(NC(=O)COc3ccc(Cl)c(I)c3)(C1)C2 [Compound 260, 2-(4-chloro-3-fluorophenoxy)-N-{3-[2-(4-chloro-3-iodophenoxy)acetamido]-bicyclo[1.1.1]pentan-1-yl}acetamide]	< 10 nM
Cc1noc(C)c1-c1cc(OCC(=O)NC23CC(NC(=O)COc4ccc(Cl)c(F)c4)(C2)C3)ccc1Cl [Compound 261, 2-[4-chloro-3-(3,5-dimethyl-1,2-oxazol-4-yl)phenoxy]-N-{3-[2-(4-chloro-3-fluorophenoxy)acetamido]bicyclo[1.1.1]pentan-1-yl}acetamide]	10 to 50 nM
N#CCc1cc(OCC(=O)NC23CC(NC(=O)COc4ccc(Cl)c(F)c4)(C2)C3)ccc1Cl [Compound 262, 2-[4-chloro-3-(cyanomethyl)phenoxy]-N-{3-[2-(4-chloro-3-fluorophenoxy)acetamido]bicyclo[1.1.1]pentan-1-yl}acetamide]	10 to 50 nM
CC(O)c1ccc(OCC(=O)NC23CC(NC(=O)COc4ccc(Cl)c(F)c4)(C2)C3)cn1 (stereo not shown) [Compound 263, 2-(4-chloro-3-fluorophenoxy)-N-[3-(2-{[6-(1-hydroxyethyl)pyridin-3-yl]oxy}acetamido)bicyclo[1.1.1]pentan-1-yl]acetamide]	500 to 2000 nM
COC(=O)c1ccc(OCC(=O)NC23CC(NC(=O)COc4ccc(Cl)c(F)c4)(C2)C3)cn1 [Compound 264, methyl 5-[2-({3-[2-(4-chloro-3-fluorophenoxy)acetamido]bicyclo-[1.1.1]pentan-1-yl}amino)-2-oxoethoxy]pyridine-2-carboxylate]	500 to 2000 nM
O=C(COc1ccnc(C(F)(F)F)c1)NC12CC(NC(=O)COc3ccc4c(c3)OC(F)(F)O4)(C1)C2 [Compound 265, 2-[(2,2-difluoro-2H-1,3-benzodioxol-5-yl)oxy]-N-[3-(2-{[2-(trifluoromethyl)pyridin-4-yl]oxy}acetamido)bicyclo[1.1.1]pentan-1-yl]acetamide]	10 to 50 nM
O=C(COc1ccc(C(F)(F)F)nc1)NC12CC(NC(=O)COc3ccc4c(c3)OC(F)(F)O4)(C1)C2 [Compound 266, 2-[(2,2-difluoro-2H-1,3-benzodioxol-5-yl)oxy]-N-[3-(2-{[6-(trifluoromethyl)-pyridin-3-yl]oxy}acetamido)bicyclo[1.1.1]pentan-1-yl]acetamide]	< 10 nM
N#Cc1ccc(OCC(=O)NC23CC(NC(=O)COc4ccc5c(c4)OC(F)(F)O5)(C2)C3)cn1 [Compound 267, 2-[(6-cyanopyridin-3-yl)oxy]-N-(3-{2-[(2,2-difluoro-2H-1,3-benzodioxol-5-yl)oxy]acetamido}bicyclo[1.1.1]pentan-1-yl)acetamide]	50 to 250 nM
O=C(COc1ccc(C2CC2)nc1)NC12CC(NC(=O)COc3ccc4c(c3)OC(F)(F)O4)(C1)C2 [Compound 268, 2-[(6-cyclopropylpyridin-3-yl)oxy]-N-(3-{2-[(2,2-difluoro-2H-1,3-benzodioxol-5-yl)oxy]acetamido}bicyclo[1.1.1]pentan-1-yl)acetamide]	10 to 50 nM

Reference: US20240166652A1, “MODULATORS OF THE INTEGRATED STRESS PATHWAY” (Calico Life Sciences LLC, priority 2017, published 2024)
